Here are results for 1 compound from patent US20140235729A1, “BENZYLAMINE CONTAINING COMPOSITIONS AND METHODS FOR APPETITE SUPPRESSION” (Zija International, Inc., priority 2013, published 2014).

The conditions of series [1]: 'thought to be' / 'believed to be'; cited from earlier work.
Another series has as its system appetite. The experiment in a line: appetite suppression after oral consumption by a subject. The conditions noted are these: consumed orally by a subject; 'results have shown'; listed as Moringine. Type of series: in vivo. The procedure: Generally speaking, most parts of the Moringa Oleifera tree are edible, with the leaves and seeds often being associated with most of the above-mentioned nutritional and health benefits.
However, the medium lethal dose (LD50) of benzylamine in subjects is understood to be about 600 milligrams (mg) per kilogram (kg) (i.e., 600 mg/kg). […] However, in accordance with the novel appetite suppression compositions and methods described herein, an effective amount of benzylamine that is far below the LD50 can be orally administered to adult humans for appetite suppression.

The conditions of series [2]: in subjects; 'understood to be'; cited from earlier work.

For `NCc1ccccc1` [benzylamine], the in vivo half-life in series [1] was 15 to 30 min. Besides, in the series with appetite, the appetite suppression entry is recorded as “can suppress a subject's appetite”. In addition, the “medium lethal dose (LD50)” value in series [2] is “about 600 mg/kg”.
